The source of these data is patent publication US9261498B2, “Biomarker for sensitivity to mTOR inhibitor therapy in kidney cancer” (The Regents of the University of California, priority 2005, dated 2016).

Entries after “also recorded” stand apart in the source; their conditions may differ.

The subject of test [1] is GLUT-1, CA-IX and VEGF. The test can be described thus: Expression of HIF target genes GLUT-1, CA-IX and VEGF in VHL knockdown cells. In kind it is cell-based, human. The note with it: 1 and 10 nM CCI-779. The protocol: (§1) (a) SN12C-CSCG and SN12C-VHLshRNA cell were treated with vehicle, 1 nM or 10 nM of CCI-779 and lysed 24 hours later. Lysates were subjected to immunoblotting for HIF-1α, HIF-2α, GLUT-1, CA-IX, p-eIF4G, p-S6 Ribosomal protein. Equal protein loading was verified using anti-β-actin antibody. (b) HIF-1α expression was probed by immunoblotting in SN12C-MSCV-5′TOP-HIF-1α cDNA (left panel) and SN12C-MSCV-HIF-1α cDNA (tight panel) post 24 hours of vehicle, 1 nM or 10 nM of CCI-779.
(§2) Cells and xenograft tumors were lysed in ECB lysis buffer (see, e.g. Kondo et al., Cancer Cell 1, 237-46 (2002)) or high-detergent buffer (2% SDS), (see, e.g. Chen et al., Nat Med 10, 33-9 (2004)), respectively, supplemented with complete protease and phosphatase inhibitor cocktails (Calbiochem). […] Bound antibody was detected using enhanced chemiluminescence (ECL, Amersham). For VEGF ELISA quantification, cells were plated in 6 well plates (1×10^5 per well). […] Thirty-six hours later, VEGF ELISA (R&D Systems) was performed according to the manufacturer's instructions, using a Fisher Plate reader. […]
(§3) Cells and xenograft tumors were lysed in ECB lysis buffer or high-detergent buffer (2% SDS), respectively, supplemented with complete protease and phosphatase inhibitor cocktails (Calbiochem). […] Bound antibody was detected using enhanced chemiluminescence (ECL, Amersham). […]

Test [2] concerns mTOR. Kind of test: Immunoblot of S6 phosphorylation in xenograft tumors. The test is classed as in vivo, SCID mice. Particulars: parental and knockdown xenografts, 0.1 mg/kg, day 5 of treatment. The procedure: FIGS. 1A-1E. Effects of VHL knockdown on sensitivity to CCI-779. (a) Immunoblotting of lysates derived from shRNA and control (empty vector, V) in SN12C, using antibodies against VHL (both isoforms detected), HIF-1α, HIF-2α, GLUT-1, CA-IX and β-Actin (as a loading control). (b) SN12C-CSCG and SN12C-VHLshRNA cells (1×10^5) were cultured in 10% serum rich media, in the presence of vehicle, 1 or 10 nM of CCI-779 for 5 days. Cell growth was measured by cell counts (n=3). […] (c) SN12C-CSCG (C1) and SN12C-CSCG shVHL RNA (C2) cells were injected into SCID mice at a dose of 1×10^6 cells per mouse (n=30). […] Phosphorylated-S6 protein in SN12C-CSCG and SN12C-VHL shRNA xenograft tumors treated with vehicle or 0.1 mg/kg of CCI-779 was measured by immunoblot C3 and C4). […]
as §2
In general terms: A western blot detects proteins with antibodies after separation by electrophoresis.

The subject of test [3] is HIF-2α. The test can be described thus: Immunoblot of HIF-2α protein in VHL knockdown RCC cells. The test is classed as cell-based, human. Particulars: 1 and 10 nM CCI-779, 24 hours. The protocol: as §1, §2, §3

As for `CO[C@H]1C[C@@H]2CC[C@@H](C)[C@@](O)(O2)C(=O)C(=O)N2CCCC[C@H]2C(=O)O[C@H]([C@H](C)C[C@@H]2CC[C@@H](OC(=O)C(C)(CO)CO)[C@H](OC)C2)CC(=O)[C@H](C)/C=C(\C)[C@@H](O)[C@@H](OC)C(=O)[C@H](C)C[C@H](C)/C=C/C=C/C=C/1C` [CCI-779], in test [1], the “expression of GLUT-1, CA-IX and VEGF” value is given as “similarly reduced; also recorded: decrease in the expression”. The “S6 phosphorylation in xenograft tumors” value in test [2] is given as “decrease in S6 phosphorylation”. Further, the HIF-2α protein levels result in test [3] was “dramatically reduced; also recorded: reduction; also recorded: decrease”.
